In publication PMC8351079, “Molecular encapsulation of andrographolide in 2-hydroxypropyl-β-cyclodextrin cavity: synthesis, characterization, pharmacokinetic and in vitro antiviral activity analysis against SARS-CoV-2” (Heliyon, 2021):
In brackets after ≈: the same amount, converted by molar mass. Where two headings read alike, the source gives them in different places.

Assays:
[1] = Cytotoxicity testing, MTT cell proliferation assay; type: cell-based; conditions: African green monkey, Vero E6 cells, concentration not given, read-out: % Cell viability against Vero E6 cells
Method: The cytotoxic effect of AND-2-HyP-β-CYD complex on the property of Vero E6 cells was evaluated by using MTT dye [3-(4,5-dimethylthiazol-2-yl)-2,5-diphenyltetrazolium bromide] assay technique. In brief, 1 × 10^4 Vero E6 cells were incubated for 24 h in serum DMEM (Dulbecco's Modified Eagle Medium) of about 200-μl in a 96 wells microtiter plate. Subsequently, Vero E6 cells were incubated for 24 h as well as 72 h with 10 μg.mL^−1 or 100-μg.mL^−1 of AND-2-HyP-β-CYD complex. On the other hand, remedisivir was taken as standard in identical concentration range. MTT dye stock solution (0.5 mg.mL^−1) was incorporated to each well of the microtiter plate post completion of incubation time. The plate was further incubated in 5% CO2 incubator at 37 °C for 4 h. The formazon crystals liberated after cell lysis, were suspended in 100 μL of DMSO (Dimethyl sulfoxide) in the last step. The absorbance was captured using reference wavelength of 630 nm in a ELISA reader at 570 nm.

SARS-CoV-2 = experiment: microbe, parasite or virus in culture; type: cell-based; conditions: for % Inhibition of virus replication post infection: concentration not given; for IC50: Severe acute respiratory syndrome coronavirus 2, Vero C1008, Vero E6 cells infected with SARS-CoV-2, MOI 0.01, qRT-PCR after 48 h
[2] = room temperature; cited from earlier work
[3] = Dissolution test (USP apparatus, SIF pH 7.2); type: physicochemical; conditions: SIF pH 7.2, after 2 h
Method: Dissolution testing was carried out using USP dissolution rate test apparatus as per the standard protocol with HPLC method as specified earlier. In brief, 100 mg of AND or 100 mg of AND equivalent in AND-2-HyP-β-CYD complex powder was suspended in simulated intestinal fluid (SIF, pH 7.2, 900 mL) and paddle was rotated at 50 rpm. The temperature of SIF was kept at 37 ± 2 °C. At specified time intervals, 2 mL of the SIF was taken and replaced with identical volume.

[4] = Pharmacokinetic analysis in rats (AND in plasma by HPLC); conditions: male, Sprague Dawley, in vivo, rat
[5] = as above; design: species or system male Sprague Dawley rats; conditions: in vivo, rat
Method: The pharmacokinetic analysis was carried out in male Sprague Dawley rats. The animals were kept in light controlled environment (Photoperiod~12 h, 23 ± 1 °C, 50 ± 5% humidity) with access to food and water ad libitum. […] In brief, 120 male rats were indiscriminately divided into 30 groups of 4 animals each similar to blood collection time points. AND and AND equivalent to 100 mg.kg^−1 in AND-2-HyP-β-CYD complex was administered orally by gavages.
The AND in plasma was monitored up to 48 h post oral administration of AND and AND-2-HyP-β-CYD complex. Blood samples were collected in both groups at 0.083, 0.25, 0.5, 1, 2, 4, 8, 16, 24 and 48 h. About 750 μl of blood sample was isolated from the retro-orbital vein into microcentrifuge tubes containing 100 μl of 10 % w/v sodium citrate as anticoagulant. The plasma was extracted from the blood by centrifugation at 5000 rpm for 20 min at 4 °C and stored at -40 °C until analyzed.
To extract the AND from plasma samples, plasma was typically mixed with methanol (1: 3 ratio) and vortexed for 20 min. Post mixing, the homogenate was centrifuged for 20 min at 5000 rpm to extract the proteins. The supernatant was filtered through 0.22 μm membrane filter and 10 μl was injected as specified earlier in to the HPLC system.
Plasma concentration data were analyzed and computed for one-compartmental pharmacokinetic parameters. The following pharmacokinetic parameters were assessed: ke (h), t1/2 (h), Cmax (μg.mL^−1), AUClast (h.μg.mL^−1), AUCinf (h.μg.mL^−1), MRT (h), CLTotal (L.h^−1), Vd (L) and F %.

[6] = Solubility analysis by saturated solution method; type: physicochemical; conditions: aqueous phase, 37 °C
Method: The solubility of solid complex was measured by saturated solution method. […] Subsequently, suspension was filtered and 0.1 mL was diluted to 1 mL with water. […] All measurements were noticed in triplicate (n = 3).

[7] = in vivo, cited from earlier work
[8] = cited from earlier work
[9] = male, Sprague Dawley, oral, 100 mg/kg (AND equivalent)

CCC(CC)COC(=O)[C@H](C)N[P@](=O)(OC[C@H]1O[C@@](C#N)(c2ccc3c(N)ncnn23)[C@H](O)[C@@H]1O)Oc1ccccc1 [Remdesivir]
viability at 24 h ([1]; 24 h): 99.2% | viability at 48 h ([1]; 48 h): 94.4% | % Inhibition of virus replication post infection (SARS-CoV-2; 24 h, E gene): 72.26% | % Inhibition of virus replication post infection (SARS-CoV-2; 24 h, N gene): 77.61% | % Inhibition of virus replication post infection (SARS-CoV-2; 48 h, E gene): 99.64% | % Inhibition of virus replication post infection (SARS-CoV-2; 48 h, N gene): 99.76% | IC50 (SARS-CoV-2; read-out: IC50 (E gene)): 0.09 µg/mL (≈ 0.149 µM) | IC50 (SARS-CoV-2; read-out: IC50 (N gene)): 0.06 µg/mL (≈ 0.0996 µM)

CC(O)COC[C@H]1O[C@@H]2O[C@H]3[C@H](O)[C@@H](O)[C@@H](O[C@H]4[C@H](O)[C@@H](O)[C@@H](O[C@H]5[C@H](O)[C@@H](O)[C@@H](O[C@H]6[C@H](O)[C@@H](O)[C@@H](O[C@H]7[C@H](O)[C@@H](O)[C@@H](O[C@H]8[C@H](O)[C@@H](O)[C@@H](O[C@H]1[C@H](O)[C@H]2O)O[C@@H]8COCC(C)O)O[C@@H]7COCC(C)O)O[C@@H]6COCC(C)O)O[C@@H]5COCC(C)O)O[C@@H]4COCC(C)O)O[C@@H]3COCC(C)O (stereo partly drawn) [2-HyP-β-CYD, 2-Hydroxypropyl-β-cyclodextrin]
Aqueous solubility [2]: > 500000 µg/mL

C=C1CC[C@@H]2[C@](C)(CO)[C@H](O)CC[C@@]2(C)[C@@H]1C/C=C1/C(=O)OC[C@H]1O [AND, Andrographolide]
% release [3]: 27.89 ± 1.32% | AUC(0-inf) ([4]; iv, 10 mg/kg): 891 ± 180 µg·h/mL | AUC(0-t) ([4]; iv, 10 mg/kg): 801 ± 181 µg·h/mL | MRT ([4]; iv, 10 mg/kg): 1.11 ± 0.04 h | Vd ([4]; iv, 10 mg/kg): 0.013 ± 0.003 L | half-life ([4]; iv, 10 mg/kg): 0.859 ± 0.031 h | clearance ([4]; iv, i.v., 10 mg/kg, read-out: CLTotal (converted)): 0.183 mL/min | Tmax ([4]; oral, 100 mg.kg^−1): 2 h | bioavailability ([5]; male, Sprague Dawley, 100 mg.kg^−1, oral 100 mg/kg vs i.v. 10 mg/kg, read-out: F (%), bioavailability): 15.9 ± 3.84% | AUC(0-inf) [5, 9]: 1850 ± 306 µg·h/mL | AUC(0-t) [5, 9]: 1220 ± 143 µg·h/mL | Cmax [5, 9]: 240 ± 75.4 µg/mL | half-life [5, 9]: 5.92 ± 0.21 h | MRT ([5]; po, 100 mg/kg): 1.49 ± 0.0.085 h | solubility at 24 h [6]: 6.39 ± 0.47 µg/mL (≈ 18.2 µM) | Half-life (t1/2) ([7]; iv): 1.86 ± 0.21 h | Absolute oral bioavailability ([7]; po): 9.27 ± 1.69% | Cmax ([7]; po): 0.73 ± 0.17 μM.L^−1 | Half-life (t1/2) ([7]; po): 3.30 ± 0.35 h | Tmax ([7]; po): 0.42 ± 0.14 h | log P [8]: 2.632 ± 0.135
